From patent US12508280B2, “Formulations for improving gut health” (DSM IP ASSETS B.V., priority 2018, dated 2025)

What was measured:
[1] = tested on: cecal microbiota; assay: Broiler feeding trial, cecal microbiota 16S rRNA sequencing; assay type: in vivo, chickens
Source text: (§1) Each group was sampled three times (i.e., S1=14 days, S2=28 days, S3=38/42 days) in specific days corresponding to when the feed will be changed along the feeding program.
(§2) During each sampling (i.e., S1, S2 and S3) a total of 40 birds/group were humanely euthanized and 9 litter samples will be collected (i.e., 3 samples/group).
DNA extraction from cecal samples: The commercial kit DNeasy PowerSoil kit (Qiagen, Hilden, Germany) has been chosen and applied to all available cecal samples following the manufacturer instructions. DNA yield was measured using a Nanodrop instrument.
(§3) 16S rRNA gene PCR amplification and sequencing. The V3-V4 hypervariable region of the 16S rRNA gene was PCR-amplified using 341F and 785R primers with Illumina overhang adaptors sequences. Amplicons purification was performed by using AMPure XP Beads magnetic beads (Beckman Coulter, Brea, CA). For the indexed library preparation, the Nextera XT DNA Library Prep Kit (Illumina, San Diego, CA) was used. A further magnetic beads purification step was performed and libraries quantified using the Qubit 3.0 fluorimeter (Invitrogen), then pooled at 4 nM. The library pool was denatured with NaOH 0.2 N and diluted to […]. Sequencing was performed on Illumina MiSeq platform using a 2×250 bp paired end protocol, according to the manufacturer's instructions (Illumina).
Bioinformatics and statistics. Raw sequences were processed using a pipeline combining PANDAseq (Masella et al, 2012) and QIIME2 (Caporaso et al, 201 O; qiime2.org). After chimera sequences removal, high-quality reads were filtered and binned into high-resolution operational taxonomic units (OTUs) according to the taxonomic threshold of 99% through an open-reference strategy performed with dada2 (Callahan et al, 2016). Taxonomy was assigned using the vsearch classifier (Rognes et al, 2016) and SILVA database as reference (Quast et al, 2013). Alpha diversity was measured using Faith PD index and number of observed OTUs. Statistics was performed using R Studio software version 1.0.136 running on R software 3.1.3 (r-project.org/), implemented with the libraries vegan, made4, PMCMR. Beta diversity was estimated by computing weighted UniFrac distances and visualized by Principal Coordinates Analyses (PCoAs). The significance of separation among groups of samples was tested by permutational multivariate analysis of variance using the function adonis of the vegan package. Bacterial phylogenetic groups (genus, family, phylum) showing a minimum relative abundance of 0.5% in at least the 1% of the samples were kept for further analysis and graphical visualization. Compositional differences among group of samples were tested using Kruskal-Wallis test. P values were corrected for multiple comparisons using the Benjamini-Hochberg method.

[2] = tested on: ileal microbiota; assay: Broiler feeding trial, ileal microbiota 16S rRNA sequencing; assay type: in vivo, chickens; conditions: Groups B and C; T2 and T3, significant for T2 only, P<0.0001
Source text: as §1, §2
as §3, with “Sequencing was performed on Illumina MiSeq platform using a 2×250 bp paired end protocol, according to the manufacturer's instructions (Illumina).” left out
(§4) Bioinformatics and statistics. […] After chimera sequences removal, high-quality reads were filtered and binned into high-resolution operational taxonomic units (OTUs) according to the taxonomic threshold of 99% through an open-reference strategy performed with dada2 (Callahan et al, 2016). […] Alpha diversity was measured using Faith PD index and number of observed OTUs. […]

[3] = tested on: caecum content metagenome; assay: Broiler feeding trial, cecal metagenomic analysis (KEGG and SEED functional genes); assay type: in vivo, chickens; conditions: treated groups (B and C) vs control group (A)
Procedure: The DNA are being extracted from each sample of caecum content using a bead-beating procedure. Briefly, 0.25 g of cecal content are suspended in 1 ml lysis buffer (500 mM NaCl, 50 mM Tris-Cl, pH 8.0, 50 mM EDTA, 4% SDS) with MagNA Lyser Green Beads (Roche, Milan, Italy) and homogenized on the MagNA Lyser (Roche) for 25 sec at 6500 rpm. The samples are then heated at 70° C. for 15 min, followed by centrifugation to separate the DNA from the bacterial cellular debris. This process is repeated with a second 300 μl aliquot of lysis buffer. The samples are then subjected to 10 M v/v ammonium acetate (Sigma, Milan, Italy) precipitation, followed by isopropanol (Sigma) precipitation and a 70% ethanol (Carlo Erba, Milan, Italy) wash and re-suspended in 100 ul 1× Tris-EDTA (Sigma). The samples are then treated with DNase-free RNase (Roche) and incubated overnight at 4° C., before being processed through the QIAmp® DNA Stool Mini Kit (Qiagen, Milan, Italy) according to manufacturer's directions with some modifications. Samples are measured on a BioSpectrometer® (Eppendorf, Milan, Italy) to assess DNA quantity and quality. […]
Filtering and trimming of raw reads were performed using MGRast (MR) (mgrast.org) (Keegan et al., 2016) bioinformatics pipelines. […]

[4] = tested on: litter microbiota; assay: Broiler feeding trial, litter microbiota; assay type: in vivo, chickens; conditions: groups A, B, C
Source text: as §1, §2
as §3, with “Sequencing was performed on Illumina MiSeq platform using a 2×250 bp paired end protocol, according to the manufacturer's instructions (Illumina).” left out
as §4

[5] = tested on: Pepsin, pancreatin, viscozyme; assay: In vitro enzymatic digestion with exogenous enzymes; assay type: biochemical
Procedure: Erlenmeyer flasks (100 mL total volume) contained 0.5 g of substrate alone or supplemented with the three eubiotics were incubated in duplicates for each treatment, to determine the in vitro enzymatic digestibility following the three-step method of Boisen and Fernandez (1997). The digestibility was determined with: • [1] Pepsin • [2] Pepsin+pancreatin • [3] Pepsin+pancreatin+viscozyme B. With Gastric Contents and Small Intestine Contents
For gas production, results were analyzed for each incubation time as a split-plot design, considering the donor pig as a block, the contents (fresh vs. frozen) as the main plot and the treatment as the subplot. The same design was used to analyze the results obtained from digestive contents (gastric vs. small intestine) as the main plot. In vitro enzymatic results were not statistically analyzed as there were no sources of experimental variability. Differences were considered significant when P<0.05, and a trend for significance was considered when 0.05 ? P<0.10 and, when significant, differences were compared by the Tukey t test at P<0.05.

[6] = tested on: fecal suspension from the selected donor; assay: Gas production in closed colon incubations (first set); assay type: cell-based, human; conditions: after 48 h fermentation, vs corresponding control
Procedure: The colon incubations were performed in closed incubation systems. This allowed us to evaluate the accumulation of gasses in the headspace, which can be measured with a pressure meter. Gas production is a measure of microbial activity, and thus of the speed of fermentation of the potentially prebiotic substrates. It can be used as an indication for bloating and digestive wellbeing upon prebiotic consumption.
Since ethanol is known to have antimicrobial effects, two blanks for each type of stock solution were included. As a source of the microbial community, a freshly prepared fecal suspension from the selected donor was added to the reactors. […] All tests, except the blanks, were performed in single repetition, resulting in 40 independent incubations, as specified in Table 1. Incubation conditions of the pre-screening experiment and the final experiment were 48 h at 37° C., under shaking (90 rpm) and anaerobic conditions. DNA were extracted from effluent samples collected from each fermentation flask before (0 h fermentation) and after fermentation (24 h fermentation) and use for microbiome composition analysis by Shotgun sequencing. Effluent samples were collected from each fermentation flask before (0 h fermentation) and after fermentation (48 h fermentation), sterilized by filtering through 0.22 μm filters and used for short chain fatty acids (SCFA), quantification of immunological biomarkers and in vitro analysis in cell culture systems.
For both sets of in vitro experiments, colon incubations were performed in closed incubation systems as described above. This allowed to evaluate the accumulation of gasses in the headspace, which can be measured with a pressure meter. Gas production is a measure of microbial activity, and thus of the speed of fermentation of the potentially prebiotic substrates

Cc1cc2nc3c(=O)[nH]c(=O)nc-3n(C[C@H](O)[C@H](O)[C@H](O)CO)c2cc1C [Vitamin B2, riboflavin]
abundance of family Bacteroidaceae and genus Bacteroides in cecum ([1]; Group B (50 mg/kg riboflavin), all available time points): significantly higher abundances
cecal microbiota structure (beta diversity, UniFrac PCoA) ([1]; Group B (control diet+50 mg/kg riboflavin) vs groups A and C): different longitudinal trajectory
abundance of Bifidobacteriaceae in cecum ([1]; Group C (100 mg/kg riboflavin), from T1 to T3, significant at T2 and T3): progressive increase
cecal species richness (observed OTUs) ([1]; Group C (control diet+100 mg/kg riboflavin), time points T2 and T3, P<0.0001): significant increase in species richness
[Eubacterium] coprostanoligenes group abundance in cecum ([1]; Groups B and C vs control group A, T2): higher abundance
ileal species richness (observed OTUs) [2]: increase in terms of species richness
PCA of functional features (6361 features, 63 samples) [3]: clear visible separation
litter microbiome bacterial composition and species richness/diversity [4]: no significant differences
substrate digestibility incubated in (P+Pancreatin) and/or (P+P+Viscozyme) [5]: no differences among treatments were observed
substrate digestibility incubated in pepsin-HCl [5]: higher than that of other treatments

Vitamin E
gas production ([6]; 1× dose): reduced gas production
gas production ([6]; 5× dose): reduced gas production
